Experimental data reported in paper PMC6437697 (Journal of Medicinal Chemistry, 2019).

Experiments:
Assay in all cases: KINOMEscan
Type in all cases: binding
Conditions in all cases: read-out: % control activity remaining
[1] = molecular target: T1, FGFR4 (Homo sapiens, UniProt P22455)
T1 construct: purchased Eurofins DiscoverX KINOMEscan

[2] = molecular target: T2, RIPK5 (Homo sapiens, UniProt Q6XUX3)
T2 construct: purchased Eurofins DiscoverX KINOMEscan
T2 sequence (Q6XUX3 1-929): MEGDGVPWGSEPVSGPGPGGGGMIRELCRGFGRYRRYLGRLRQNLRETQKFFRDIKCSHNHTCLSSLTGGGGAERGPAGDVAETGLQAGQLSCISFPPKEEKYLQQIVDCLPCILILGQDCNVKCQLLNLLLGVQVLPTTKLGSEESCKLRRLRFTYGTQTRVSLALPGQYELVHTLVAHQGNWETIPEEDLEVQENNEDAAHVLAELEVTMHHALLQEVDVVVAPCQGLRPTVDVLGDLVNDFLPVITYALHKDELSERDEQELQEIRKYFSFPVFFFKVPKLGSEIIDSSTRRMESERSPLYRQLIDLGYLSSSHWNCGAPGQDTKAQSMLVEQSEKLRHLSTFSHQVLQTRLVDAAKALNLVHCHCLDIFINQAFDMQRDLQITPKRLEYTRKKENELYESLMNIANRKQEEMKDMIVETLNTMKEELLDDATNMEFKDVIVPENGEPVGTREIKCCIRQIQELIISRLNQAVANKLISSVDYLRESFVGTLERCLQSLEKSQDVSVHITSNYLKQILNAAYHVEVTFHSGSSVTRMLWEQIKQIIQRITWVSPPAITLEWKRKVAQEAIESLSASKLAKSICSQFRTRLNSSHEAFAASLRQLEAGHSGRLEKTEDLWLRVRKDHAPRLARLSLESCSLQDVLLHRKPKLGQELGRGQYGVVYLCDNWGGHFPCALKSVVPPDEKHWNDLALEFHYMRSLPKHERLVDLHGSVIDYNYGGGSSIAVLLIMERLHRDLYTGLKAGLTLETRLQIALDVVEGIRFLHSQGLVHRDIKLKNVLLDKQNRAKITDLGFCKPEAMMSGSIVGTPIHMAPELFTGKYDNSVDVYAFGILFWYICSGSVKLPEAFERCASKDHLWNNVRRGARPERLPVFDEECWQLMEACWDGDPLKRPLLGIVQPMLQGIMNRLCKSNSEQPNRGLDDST

[3] = molecular target: T3, YANK1 (Homo sapiens, UniProt Q8WU08)
T3 construct: purchased Eurofins DiscoverX KINOMEscan
T3 sequence (Q8WU08 whole entry): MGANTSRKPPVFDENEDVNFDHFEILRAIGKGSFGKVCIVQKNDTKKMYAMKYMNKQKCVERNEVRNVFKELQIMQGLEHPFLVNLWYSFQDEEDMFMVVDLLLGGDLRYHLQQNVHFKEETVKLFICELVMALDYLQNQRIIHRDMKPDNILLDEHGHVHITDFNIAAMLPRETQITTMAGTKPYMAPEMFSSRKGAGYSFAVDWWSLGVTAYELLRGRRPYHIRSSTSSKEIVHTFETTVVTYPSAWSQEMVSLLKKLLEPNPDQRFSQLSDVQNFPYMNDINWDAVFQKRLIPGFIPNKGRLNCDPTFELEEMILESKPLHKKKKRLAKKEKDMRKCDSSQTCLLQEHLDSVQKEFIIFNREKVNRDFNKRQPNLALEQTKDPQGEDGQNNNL

[4] = molecular target: T4, AXL (Homo sapiens, UniProt P30530)
T4 construct: purchased Eurofins DiscoverX KINOMEscan
T4 sequence (P30530 26-894): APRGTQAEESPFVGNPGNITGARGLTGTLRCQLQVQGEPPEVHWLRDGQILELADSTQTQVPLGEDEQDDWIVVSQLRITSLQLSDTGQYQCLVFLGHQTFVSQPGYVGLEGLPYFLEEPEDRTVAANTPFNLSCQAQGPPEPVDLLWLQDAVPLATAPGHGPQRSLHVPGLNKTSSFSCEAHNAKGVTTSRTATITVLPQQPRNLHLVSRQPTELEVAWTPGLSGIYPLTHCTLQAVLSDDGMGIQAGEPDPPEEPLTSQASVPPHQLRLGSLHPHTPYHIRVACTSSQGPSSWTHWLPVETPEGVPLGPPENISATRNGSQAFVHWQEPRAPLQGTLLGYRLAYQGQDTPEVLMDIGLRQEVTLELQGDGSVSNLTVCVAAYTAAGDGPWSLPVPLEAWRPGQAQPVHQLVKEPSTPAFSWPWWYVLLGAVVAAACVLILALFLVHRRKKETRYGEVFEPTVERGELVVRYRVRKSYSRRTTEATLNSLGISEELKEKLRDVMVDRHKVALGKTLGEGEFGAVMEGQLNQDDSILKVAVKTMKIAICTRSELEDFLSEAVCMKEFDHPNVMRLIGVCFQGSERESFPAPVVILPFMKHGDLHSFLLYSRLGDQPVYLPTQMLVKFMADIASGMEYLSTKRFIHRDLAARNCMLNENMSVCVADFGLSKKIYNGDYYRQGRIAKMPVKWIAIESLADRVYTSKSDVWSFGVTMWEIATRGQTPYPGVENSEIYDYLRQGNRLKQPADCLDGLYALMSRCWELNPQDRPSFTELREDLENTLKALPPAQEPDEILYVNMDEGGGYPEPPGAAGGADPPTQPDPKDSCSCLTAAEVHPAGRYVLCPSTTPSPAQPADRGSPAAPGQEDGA

[5] = molecular target: T5, PKAC-alpha (Homo sapiens, UniProt P17612)
T5 construct: purchased Eurofins DiscoverX KINOMEscan

[6] = molecular target: T6, p38-delta (Homo sapiens, UniProt O15264)
T6 construct: purchased Eurofins DiscoverX KINOMEscan
T6 sequence (O15264 1-365): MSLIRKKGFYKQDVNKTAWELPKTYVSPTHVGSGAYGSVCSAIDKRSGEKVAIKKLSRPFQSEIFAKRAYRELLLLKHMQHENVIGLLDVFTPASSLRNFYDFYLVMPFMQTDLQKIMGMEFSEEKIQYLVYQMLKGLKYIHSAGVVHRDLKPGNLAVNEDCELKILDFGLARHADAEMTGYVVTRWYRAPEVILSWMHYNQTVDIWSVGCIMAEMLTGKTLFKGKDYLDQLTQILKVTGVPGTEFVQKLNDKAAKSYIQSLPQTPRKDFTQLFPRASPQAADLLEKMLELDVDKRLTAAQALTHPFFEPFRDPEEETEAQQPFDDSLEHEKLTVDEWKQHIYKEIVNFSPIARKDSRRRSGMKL

[7] = molecular target: T7, CHEK1 (Homo sapiens, UniProt O14757)
T7 construct: purchased Eurofins DiscoverX KINOMEscan
T7 sequence (O14757 1-476): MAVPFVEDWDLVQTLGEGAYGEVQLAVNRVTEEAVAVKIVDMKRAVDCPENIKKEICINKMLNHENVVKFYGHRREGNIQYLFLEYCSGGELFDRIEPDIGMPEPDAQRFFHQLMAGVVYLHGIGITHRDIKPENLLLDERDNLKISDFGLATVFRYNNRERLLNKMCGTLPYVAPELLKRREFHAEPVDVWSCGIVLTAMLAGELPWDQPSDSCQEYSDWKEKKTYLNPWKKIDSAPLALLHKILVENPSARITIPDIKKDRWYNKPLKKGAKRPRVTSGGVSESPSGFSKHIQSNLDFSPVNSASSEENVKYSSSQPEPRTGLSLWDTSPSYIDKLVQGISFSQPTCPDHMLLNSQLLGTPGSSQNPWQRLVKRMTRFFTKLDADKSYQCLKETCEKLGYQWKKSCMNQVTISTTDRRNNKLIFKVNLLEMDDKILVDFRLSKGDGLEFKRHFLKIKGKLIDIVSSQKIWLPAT

[8] = molecular target: T8, LCK (Homo sapiens, UniProt P06239)
T8 construct: purchased Eurofins DiscoverX KINOMEscan
T8 sequence (P06239 whole entry): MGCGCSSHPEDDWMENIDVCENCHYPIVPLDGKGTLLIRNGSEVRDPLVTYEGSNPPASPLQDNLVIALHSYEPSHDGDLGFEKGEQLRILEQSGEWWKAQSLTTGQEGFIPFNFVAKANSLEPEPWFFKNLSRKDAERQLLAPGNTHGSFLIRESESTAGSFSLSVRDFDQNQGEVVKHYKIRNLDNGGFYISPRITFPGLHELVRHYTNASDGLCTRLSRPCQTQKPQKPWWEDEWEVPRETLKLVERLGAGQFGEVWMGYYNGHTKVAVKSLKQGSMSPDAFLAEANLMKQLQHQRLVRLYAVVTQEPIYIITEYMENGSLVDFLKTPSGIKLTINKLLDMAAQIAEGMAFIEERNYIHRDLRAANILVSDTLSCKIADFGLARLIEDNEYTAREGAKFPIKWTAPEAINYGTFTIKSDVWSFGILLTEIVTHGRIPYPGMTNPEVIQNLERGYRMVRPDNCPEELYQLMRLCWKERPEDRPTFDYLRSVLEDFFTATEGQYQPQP

T1 sequence (P22455 22-802): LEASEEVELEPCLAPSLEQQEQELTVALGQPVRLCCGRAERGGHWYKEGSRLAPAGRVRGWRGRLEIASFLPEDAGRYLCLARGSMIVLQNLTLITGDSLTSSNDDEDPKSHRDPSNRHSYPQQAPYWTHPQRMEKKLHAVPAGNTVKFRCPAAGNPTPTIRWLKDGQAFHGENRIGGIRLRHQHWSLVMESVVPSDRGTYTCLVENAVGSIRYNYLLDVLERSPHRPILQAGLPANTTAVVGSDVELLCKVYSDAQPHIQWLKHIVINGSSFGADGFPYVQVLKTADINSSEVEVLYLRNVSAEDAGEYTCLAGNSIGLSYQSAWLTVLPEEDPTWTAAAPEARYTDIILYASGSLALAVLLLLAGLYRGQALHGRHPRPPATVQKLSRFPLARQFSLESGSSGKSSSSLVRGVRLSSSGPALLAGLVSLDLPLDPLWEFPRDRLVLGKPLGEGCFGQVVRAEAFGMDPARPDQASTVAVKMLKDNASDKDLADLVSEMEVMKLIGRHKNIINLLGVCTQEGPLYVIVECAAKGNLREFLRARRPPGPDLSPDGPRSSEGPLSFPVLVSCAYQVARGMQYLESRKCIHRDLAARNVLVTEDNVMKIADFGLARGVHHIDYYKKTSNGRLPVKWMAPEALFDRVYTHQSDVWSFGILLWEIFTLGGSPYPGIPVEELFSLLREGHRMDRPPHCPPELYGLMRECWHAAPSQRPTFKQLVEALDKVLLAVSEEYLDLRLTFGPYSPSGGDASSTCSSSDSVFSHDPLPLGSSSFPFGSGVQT

Structure (SMILES) | remaining binding at 1 µM [1] [%] | remaining binding at 1 µM [2] [%] | remaining binding at 1 µM [3] [%] | remaining binding at 1 µM [4] [%] | remaining binding at 1 µM [5] [%] | remaining binding at 1 µM [6] [%] | remaining binding at 1 µM [7] [%] | remaining binding at 1 µM [8] [%]
Clc1cc(NCC2CC2)c2ncc(-c3ccc4[nH]ncc4c3)n2n1 [compound 2, 6-Chloro-N-(cyclopropylmethyl)-3-(1H-indazol-5-yl)imidazo[1,2-b]pyridazin-8-amine] | 94 | 98 | 95 | 84 | 68 | 89 | 88 | 100
O=C(CN1CCOCC1)N[C@H]1CC[C@H](Nc2cc(Cl)nn3c(-c4ccc5[nH]ncc5c4)cnc23)CC1 [compound 26] | 99 | 91 | 98 | 88 | 100 | 60 | 100 | 87
CN1CCC(CNc2cc(Cl)nn3c(-c4cc5nc(Nc6ccccc6)[nH]c5cc4F)cnc23)CC1 [compound 31, 6-Chloro-3-(6-fluoro-2-(phenylamino)-1H-benzo[d]imidazol-5-yl)-N-((1-methylpiperidin-4-yl)methyl)imidazo[1,2-b]pyridazin-8-amine] | 98 | 79 | 73 | 99 | 94 | 72 | 100 | 82
